According to US20240228488A1 (TAKEDA PHARMACEUTICAL COMPANY LIMITED, priority 2021, published 2024):
Like-named read-outs stand apart in the source and are kept apart here.

Experiments:
[1] = molecular target: T1, plasma kallikrein (Homo sapiens, UniProt P03952); test: Neat human plasma assay, FXIIa contact pathway-activated, PFR-AMC substrate; assay type: biochemical; conditions: read-out: Human Plasma Assay: IC90
T1 construct: from tissue
Summary of the method: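 Citrated human plasma (78% final) with compound, contact-activated by 10 nM human FXIIa in pKal buffer pH 7.5, with 100 μM PFR-AMC. Fluorescence (360/480 nm) followed 5 min at room temperature; rates versus concentration fitted by 4-parameter equation for IC50/IC90.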

[2] = molecular target: human activated kallikrein enzyme (Homo sapiens, UniProt P03952); test: Plasma kallikrein inhibition, fluorogenic PFR-AMC substrate, 500 pM activated kallikrein format; assay type: biochemical; conditions: 300 uM PFR-AMC, 30 min preincubation, 10 min reaction
Sequence of human activated kallikrein enzyme (P03952 391-638 limits assumed): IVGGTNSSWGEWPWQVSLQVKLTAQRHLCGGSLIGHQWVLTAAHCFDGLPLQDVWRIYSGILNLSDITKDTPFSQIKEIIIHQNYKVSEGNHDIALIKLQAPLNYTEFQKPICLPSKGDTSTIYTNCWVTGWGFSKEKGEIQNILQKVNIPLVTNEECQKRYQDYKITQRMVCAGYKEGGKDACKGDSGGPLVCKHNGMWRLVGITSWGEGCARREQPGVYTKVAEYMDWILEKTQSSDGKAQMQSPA
Sequence of human activated kallikrein enzyme (P03952 20-390 partner limits assumed): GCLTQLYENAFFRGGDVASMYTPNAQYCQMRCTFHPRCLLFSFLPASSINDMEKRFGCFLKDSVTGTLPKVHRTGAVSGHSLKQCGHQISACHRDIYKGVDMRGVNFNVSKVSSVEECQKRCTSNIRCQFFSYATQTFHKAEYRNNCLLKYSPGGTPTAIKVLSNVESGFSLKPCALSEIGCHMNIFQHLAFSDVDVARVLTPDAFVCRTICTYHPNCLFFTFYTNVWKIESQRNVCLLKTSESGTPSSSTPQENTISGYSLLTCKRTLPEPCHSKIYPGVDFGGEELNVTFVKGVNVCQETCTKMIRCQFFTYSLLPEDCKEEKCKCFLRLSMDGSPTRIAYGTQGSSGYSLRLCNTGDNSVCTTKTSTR
Summary of the method: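 Enzyme (500 pM) was preincubated with inhibitor for 30 min at room temperature in 20 mM Tris pH 7.5, 1 mM EDTA, 150 mM NaCl, 0.1% PEG-400 and 0.1% Triton X-100. The reaction was started with 300 uM PFR-AMC, run 10 min, and fluorescence read at 460 nm (380 nm excitation). EC50 derived.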

[3] = citrated human plasma 78% final, 10 nM human FXIIa, 100 μM PFR-AMC
[4] = 500 pM activated kallikrein, read-out: Primary Dose Response Assay: Average EC50

T1 sequence (P03952 391-638 limits assumed): as the sequence (P03952 391-638 limits assumed) above
T1 sequence (P03952 20-390 partner limits assumed): as the sequence (P03952 20-390 partner limits assumed) above

| SMILES | IC90 [1, 3] [nM] | EC50 [2, 4] [nM] | IC90 [1] [nM] | EC50 ([2]; Primary Dose Response Assay: Average EC50, 500 pM activated kallikrein) [nM] |
| --- | --- | --- | --- | --- |
| Cc1cc(NCc2cn3cc(C4CC4)cc(N4CCN(C)CC4)c3n2)cc(NC(=O)[C@H]2C[C@@H]2c2cccc(Cl)c2)n1 [Example 605, (1S,2S)-2-(3-chlorophenyl)-N-(4-(((6-cyclopropyl-8-(4-methylpiperazin-1-yl)imidazo[1,2-a]pyridin-2-yl)methyl)amino)-6-methylpyridin-2-yl)cyclopropane-1-carboxamide] | 400 to 1500 | < 1 |  |  |
| CNCCc1cc(C2CC2)cn2cc(CNc3ccnc(NC(=O)[C@H]4C[C@@H]4c4cccc(Cl)c4)c3)nc12 [Example 607, (1S,2S)-2-(3-chlorophenyl)-N-(4-(((6-cyclopropyl-8-(2-(methylamino)ethyl)imidazo[1,2-a]pyridin-2-yl)methyl)amino)pyridin-2-yl)cyclopropane-1-carboxamide] | < 400 | < 1 |  |  |
| CN1CC(O)(c2cc(C3CC3)cn3cc(CNc4ccnc(NC(=O)[C@H]5C[C@@H]5c5cccc(Cl)c5)c4)nc23)C1 [Example 608, (1S,2S)-2-(3-chlorophenyl)-N-(4-(((6-cyclopropyl-8-(3-hydroxy-1-methylazetidin-3-yl)imidazo[1,2-a]pyridin-2-yl)methyl)amino)pyridin-2-yl)cyclopropane-1-carboxamide] | < 400 | < 1 |  |  |
| CN1CC(c2cc(C3CC3)cn3cc(CNc4ccnc(NC(=O)[C@H]5C[C@@H]5c5cccc(Cl)c5)c4)nc23)C1 [Example 609, (1S,2S)-2-(3-chlorophenyl)-N-(4-(((6-cyclopropyl-8-(1-methylazetidin-3-yl)imidazo[1,2-a]pyridin-2-yl)methyl)amino)pyridin-2-yl)cyclopropane-1-carboxamide] | < 400 | < 1 |  |  |
| O=C(Nc1nsc(NCc2cn3cc(C4CC4)ccc3n2)n1)[C@H]1C[C@@H]1c1cccc(Cl)c1 [Example 610, (1S,2S)-2-(3-chlorophenyl)-N-(5-(((6-cyclopropylimidazo[1,2-a]pyridin-2-yl)methyl)amino)-1,2,4-thiadiazol-3-yl)cyclopropane-1-carboxamide] | 10000 to 48000 | 1 to 10 |  |  |
| O=C(Nc1cc(NCc2cn3cc(C4CC4)ccc3n2)cc(O)n1)[C@H]1C[C@@H]1c1cccc(Cl)c1 [Example 611, (1S,2S)-2-(3-chlorophenyl)-N-(4-(((6-cyclopropylimidazo[1,2-a]pyridin-2-yl)methyl)amino)-6-hydroxypyridin-2-yl)cyclopropane-1-carboxamide] | 1500 to 10000 | < 1 |  |  |
| CN1CCN(c2cc(C3CC3)cn3cc(CNc4cnnc(NC(=O)[C@H]5C[C@@H]5c5cccc(Cl)c5)c4)nc23)CC1 [Example 612, (1S,2S)-2-(3-chlorophenyl)-N-(5-(((6-cyclopropyl-8-(4-methylpiperazin-1-yl)imidazo[1,2-a]pyridin-2-yl)methyl)amino)pyridazin-3-yl)cyclopropane-1-carboxamide] | 1500 to 10000 | < 1 |  |  |
| CN1CCN(c2cc(C3CC3)cn3cc(CNc4nccc(NC(=O)[C@H]5C[C@@H]5c5cccc(Cl)c5)n4)nc23)CC1 [Example 613, (1S,2S)-2-(3-chlorophenyl)-N-(2-(((6-cyclopropyl-8-(4-methylpiperazin-1-yl)imidazo[1,2-a]pyridin-2-yl)methyl)amino)pyrimidin-4-yl)cyclopropane-1-carboxamide] | 400 to 1500 | 1 to 10 |  |  |
| Cc1ccnc([C@H]2C[C@@H]2C(=O)Nc2cc(N[C@H](C)c3cn4cc(CF)cc(N5CC(=O)N(C)C5=O)c4n3)ncn2)n1 [Example 678, (1S,2S)—N-(6-(((R)-1-(6-(fluoromethyl)-8-(3-methyl-2,4-dioxoimidazolidin-1-yl)imidazo[1,2-a]pyridin-2-yl)ethyl)amino)pyrimidin-4-yl)-2-(4-methylpyrimidin-2-yl)cyclopropane-1-carboxamide] |  |  | < 400 | < 1 |
| CN1CCN(c2cc(C3CC3)cn3cc(CNc4cc(NC(=O)[C@H]5C[C@@H]5c5cccc(Cl)c5)ncn4)nc23)CC1 [Example I-2, (1S,2S)-2-(3-chlorophenyl)-N-(6-(((6-cyclopropyl-8-(4-methylpiperazin-1-yl)imidazo[1,2-a]pyridin-2-yl)methyl)amino)pyrimidin-4-yl)cyclopropane-1-carboxamide] | 400 to 1500 | < 1 |  |  |
| CN(C)C1CN(c2cc(C3CC3)cn3cc(CNc4ccnc(NC(=O)[C@H]5C[C@@H]5c5cccc(Cl)c5)c4)nc23)C1 [Example I-4, (1S,2S)-2-(3-chlorophenyl)-N-(4-(((6-cyclopropyl-8-(3-(dimethylamino)azetidin-1-yl)imidazo[1,2-a]pyridin-2-yl)methyl)amino)pyridin-2-yl)cyclopropane-1-carboxamide] | 1500 to 10000 | < 1 |  |  |
| CN1CCC(Nc2cc(C3CC3)cn3cc(CNc4cc(NC(=O)[C@H]5C[C@@H]5c5cccc(Cl)c5)ncn4)nc23)CC1 [Example I-5, (1S,2S)-2-(3-chlorophenyl)-N-(6-(((6-cyclopropyl-8-((1-methylpiperidin-4-yl)amino)imidazo[1,2-a]pyridin-2-yl)methyl)amino)pyrimidin-4-yl)cyclopropane-1-carboxamide] | 400 to 1500 | < 1 |  |  |
| COCC1CN(c2cc(C3CC3)cn3cc(CNc4cc(NC(=O)[C@H]5C[C@@H]5c5cccc(Cl)c5)ncn4)nc23)CCN1C (stereo partly drawn) [Example I-6, (1S,2S)-2-(3-chlorophenyl)-N-(6-(((6-cyclopropyl-8-(3-(methoxymethyl)-4-methylpiperazin-1-yl)imidazo[1,2-a]pyridin-2-yl)methyl)amino)pyrimidin-4-yl)cyclopropane-1-carboxamide] | 1500 to 10000 | 1 to 10 |  |  |
| CN1CCN(c2cc(C3CC3)cn3cc(CNc4cc(NC(=O)[C@H]5C[C@@H]5c5cccc(Cl)c5)ncn4)nc23)CC1CO (stereo partly drawn) [Example I-7, (1S,2S)-2-(3-chlorophenyl)-N-(6-(((6-cyclopropyl-8-(3-(hydroxymethyl)-4-methylpiperazin-1-yl)imidazo[1,2-a]pyridin-2-yl)methyl)amino)pyrimidin-4-yl)cyclopropane-1-carboxamide] | 400 to 1500 | 1 to 10 |  |  |
| CN1CN(c2cc(C3CC3)cn3cc(CNc4cc(NC(=O)[C@H]5C[C@@H]5c5cccc(Cl)c5)ncn4)nc23)CC1=O [Example I-9, (1S,2S)-2-(3-chlorophenyl)-N-(6-(((6-cyclopropyl-8-(3-methyl-4-oxoimidazolidin-1-yl)imidazo[1,2-a]pyridin-2-yl)methyl)amino)pyrimidin-4-yl)cyclopropane-1-carboxamide] | 1500 to 10000 | 1 to 10 |  |  |
| O=C(Nc1cc(NCc2cn3cc(C4CC4)cc(N4CCS(=O)(=O)CC4)c3n2)ncn1)[C@H]1C[C@@H]1c1cccc(Cl)c1 [Example I-10, (1S,2S)-2-(3-chlorophenyl)-N-(6-(((6-cyclopropyl-8-(1,1-dioxidothiomorpholino)imidazo[1,2-a]pyridin-2-yl)methyl)amino)pyrimidin-4-yl)cyclopropane-1-carboxamide] | 1500 to 10000 | 1 to 10 |  |  |
| O=C(Nc1cc(NCc2cn3cc(C4CC4)cc(N4CCN5CCC4C5)c3n2)ncn1)[C@H]1C[C@@H]1c1cccc(Cl)c1 (stereo partly drawn) [Example I-11, (1S,2S)-N-(6-(((8-(1,4-diazabicyclo[3.2.1]octan-4-yl)-6-cyclopropylimidazo[1,2-a]pyridin-2-yl)methyl)amino)pyrimidin-4-yl)-2-(3-chlorophenyl)cyclopropane-1-carboxamide] | 1500 to 10000 | 1 to 10 |  |  |
| CNC1CCN(c2cc(C3CC3)cn3cc(CNc4cc(NC(=O)[C@H]5C[C@@H]5c5cccc(Cl)c5)ncn4)nc23)C1 (stereo partly drawn) [Example I-16, (1S,2S)-2-(3-chlorophenyl)-N-(6-(((6-cyclopropyl-8-(3-(methylamino)pyrrolidin-1-yl)imidazo[1,2-a]pyridin-2-yl)methyl)amino)pyrimidin-4-yl)cyclopropane-1-carboxamide] | 400 to 1500 | < 1 |  |  |
| CN(C)C1CCN(c2cc(C3CC3)cn3cc(CNc4cc(NC(=O)[C@H]5C[C@@H]5c5cccc(Cl)c5)ncn4)nc23)C1=O (stereo partly drawn) [Example I-17, (1S,2S)-2-(3-chlorophenyl)-N-(6-(((6-cyclopropyl-8-(3-(dimethylamino)-2-oxopyrrolidin-1-yl)imidazo[1,2-a]pyridin-2-yl)methyl)amino)pyrimidin-4-yl)cyclopropane-1-carboxamide] | 400 to 1500 | < 1 |  |  |
| CN(C)C1CC(=O)N(c2cc(C3CC3)cn3cc(CNc4cc(NC(=O)[C@H]5C[C@@H]5c5cccc(Cl)c5)ncn4)nc23)C1 (stereo partly drawn) [Example I-18, (1S,2S)-2-(3-chlorophenyl)-N-(6-(((6-cyclopropyl-8-(4-(dimethylamino)-2-oxopyrrolidin-1-yl)imidazo[1,2-a]pyridin-2-yl)methyl)amino)pyrimidin-4-yl)cyclopropane-1-carboxamide] | < 400 | < 1 |  |  |
| O=C(Nc1cc(NCc2cn3cc(C4CC4)cc(N4CNCC4=O)c3n2)ncn1)[C@H]1C[C@@H]1c1cccc(Cl)c1 [Example I-19, (1S,2S)-2-(3-chlorophenyl)-N-(6-(((6-cyclopropyl-8-(5-oxoimidazolidin-1-yl)imidazo[1,2-a]pyridin-2-yl)methyl)amino)pyrimidin-4-yl)cyclopropane-1-carboxamide] | < 400 | < 1 |  |  |
